Data from US9156811B2 (priority 2008, dated 2015).
Where two headings read alike, the source gives them in different places.

Key:
[1] = system: Trypanosome (T. brucei brucei); test: In-vitro antitrypanosomal efficacy assay (cell growth, resazurin); type: cell-based
[2] = biological target: T. brucei N-myristoyl transferase (Trypanosoma brucei brucei (strain 927/4 GUTat10.1), UniProt Q388H8); test: biochemical; type: biochemical
[3] = value printed without enzyme tag in the NMT Enzyme column (taken as T. brucei NMT), read-out: IC50 (μM) NMT Enzyme
[4] = value with no enzyme tag in the cell, taken as T. brucei NMT, read-out: IC50 (μM) NMT Enzyme
[5] = T. brucei brucei, blood stream form, variant 221
[6] = T. brucei NMT, value without parentheses, read-out: IC50 (μM) NMT Enzyme (T. brucei NMT)

T. brucei N-myristoyl transferase, sequence (Q388H8 1-446): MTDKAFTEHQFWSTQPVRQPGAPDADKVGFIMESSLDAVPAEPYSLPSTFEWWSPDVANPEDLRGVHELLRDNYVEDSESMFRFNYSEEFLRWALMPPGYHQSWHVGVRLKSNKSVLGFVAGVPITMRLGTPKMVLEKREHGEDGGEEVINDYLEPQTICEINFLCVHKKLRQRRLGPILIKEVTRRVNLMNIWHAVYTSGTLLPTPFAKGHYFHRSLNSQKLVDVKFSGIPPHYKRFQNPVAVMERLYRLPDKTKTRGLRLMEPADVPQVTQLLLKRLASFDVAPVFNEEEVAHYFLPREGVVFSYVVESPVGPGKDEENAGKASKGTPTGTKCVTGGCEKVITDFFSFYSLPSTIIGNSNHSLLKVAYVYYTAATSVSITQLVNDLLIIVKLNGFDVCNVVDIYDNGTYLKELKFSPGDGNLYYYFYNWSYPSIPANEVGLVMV

IC50 [2, 3] [µM]	IC50 [2, 4] [µM]	IC50 [2, 6] [µM]	Compound	ED50 (μM) T. brucei ([1]; T. brucei cell growth) [µM]	ED50 (μM) T. brucei [1, 5] [µM]
	0.024		Cc1nn(C)c(C)c1N[S+](=O)([O-])c1ccc(-c2cccc(CCN(C)C)c2)cc1 [DDD90106]	0.251	
3.2			CCCN(c1c(C)nn(C)c1C)[S+](=O)([O-])c1c(Cl)cc(Br)cc1Cl [DDD85594]	21.0	
	1.1		Cc1noc(C)c1N[S+](=O)([O-])c1ccc(CCCN2CCN(C)CC2)cc1 [DDD88190]	31.0	
	6		Cc1nn(C)c(C)c1N[S+](=O)([O-])c1ccc(-c2cccc(C=O)c2)cc1 [DDD86210]	>1	
2.4			Cc1nn(C)c(C)c1N[S+](=O)([O-])c1ccc(CSCc2ccccc2)cc1 [DDD85599]	>1	
	40		Cc1nn(C)c(C)c1N[S+](=O)([O-])c1ccc(COCCN2CCN(C)CC2)cc1 [DDD85649]	>1	
	0.054		Cc1nn(C)c(C)c1N[S+](=O)([O-])c1ccc(-c2cccc(CN)c2)cc1 [DDD88560]	2.15	
		0.006	CCCNCc1cccc(-c2ccc([S+](=O)([O-])Nc3c(CC(C)C)nn(C)c3C)cc2)c1 [DDD100800]		0.052
0.59			Cc1nn(C)c(C)c1N(C1CC1)[S+](=O)([O-])c1c(Cl)cc(Br)cc1Cl [DDD85591]	5.3	
	1		Cc1nn(C)c(C)c1NS(=O)(=O)c1c(Cl)cc(-c2ccnc(NCCCn3ccnc3)c2)cc1Cl [DDD86308, 2,6-Dichloro-4-[2-(3-imidazol-1-yl-propylamino)-pyridin-4-yl]-N-(1,3,5-trimethyl-1H-pyrazol-4-yl)-benzenesulfonamide]	>1	
	5.9		Cc1nn(C)c(C)c1N[S+](=O)([O-])c1c(Cl)cc(C#CCN2CCCCC2)cc1Cl [DDD86476]	>1	
6.1			Cc1nn(C)c(C)c1N[S+](=O)([O-])c1ccc(Cn2cnc3ccccc32)cc1 [DDD73512]	>1	
	0.05		Cc1nn(C)c(C)c1N(CCCO)[S+](=O)([O-])c1ccc(-c2ccnc(N3CCNCC3)c2)cc1 [DDD87755, N-(3-Hydroxy-propyl)-4-(2-piperazin-1-yl-pyridin-4-yl)-N-(1,3,5-trimethyl-1H-pyrazol-4-yl)-benzenesulfonamide]	0.98	
		0.007	Cc1c(N[S+](=O)([O-])c2ccc(-c3cc(CN(C)C)ccc3F)cc2)c(CC(C)C)nn1C [DDD99827]		0.019
	2		Cc1nn(C)c(C)c1N[S+](=O)([O-])c1ccc(NCCCn2ccnc2)nc1 [DDD85633]	>50	
		0.005	CCNCc1cccc(-c2ccc([S+](=O)([O-])Nc3c(CC(C)C)nn(C)c3C)cc2)c1 [DDD100095]		0.055
	0.003		Cc1c(N[S+](=O)([O-])c2c(Cl)cc(CCCC3CCN(C)CC3)cc2Cl)c(CC(C)C)nn1C [DDD99743]	0.005	
44			Cc1nn(C)c(C)c1N[S+](=O)([O-])c1ccc(CNC2CCc3ccccc32)cc1 (stereo not drawn) [DDD85592]	>1	
0.12			Cc1nn(C)c(C)c1N[S+](=O)([O-])c1ccc(NCCCN2CCN(C)CC2)nc1 [DDD85627]	0.62	
	10		Cc1nn(C)c(C)c1N[S+](=O)([O-])c1ccc(Br)cc1F [DDD88318]	>10	
	0.006		Cc1c(N[S+](=O)([O-])c2ccc(-c3cccc(CN(C)C)c3)c(C(F)(F)F)c2)c(CC(C)C)nn1C [DDD99822]	0.051	
0.57			Cc1nn(C)c(C)c1N(C)[S+](=O)([O-])c1ccc(N2CCc3c(N)cccc3C2)nc1 [DDD85605]	2.4	
	1		Cc1nn(C)c(C)c1N[S+](=O)([O-])c1ccc(NCCCNC2CCN(Cc3ccccc3)C2)nc1 (stereo not drawn) [DDD86295]	>1	
		0.006	Cc1c(N[S+](=O)([O-])c2ccc(-c3cccc(CN(C)C)c3)c(Cl)c2)c(CC(C)C)nn1C [DDD99823]		0.041
	1		Cc1nn(C)c(C)c1N[S+](=O)([O-])c1ccc(NCCN2CCN(C(C)C)CC2)nc1 [DDD86298]	>1	
0.36			Cc1nn(C)c(C)c1N(CCCO)S(=O)(=O)c1c(Cl)cc(Br)cc1Cl [DDD85593, 4-Bromo-2,6-dichloro-N-(3-hydroxy-propyl)-N-(1,3,5-trimethyl-1H-pyrazol-4-yl)-benzenesulfonamide]	3.5	

Further lines, the compound ahead of its results:

Compound	IC50 [2, 3] [µM]	IC50 [2, 4] [µM]	IC50 [2, 6] [µM]	ED50 (μM) T. brucei ([1]; T. brucei cell growth) [µM]	ED50 (μM) T. brucei [1, 5] [µM]
COc1cc(C)c([S+](=O)([O-])Nc2c(C)n[nH]c2C)c(C)c1C [DDD71601]	> 100			>1	
Cc1nn(C)c(C)c1N[S+](=O)([O-])c1ccc(NCc2ccc3c(c2)OCO3)nc1 [DDD73326]	1.4			>1	
COc1ccccc1CNc1ccc([S+](=O)([O-])Nc2c(C)nn(C)c2C)cn1 [DDD73328]	2.4			19.1	
Cc1nn(C)c(C)c1N[S+](=O)([O-])c1ccc(N2CCC(c3ccccc3)CC2)nc1 [DDD73481]	6.9			>1	
Cc1nn(C)c(C)c1N[S+](=O)([O-])c1ccccc1F [DDD71245]	5.6			>1	
Cc1nn(C)c(C)c1N[S+](=O)([O-])c1cccc(Br)c1 [DDD71240]	8			>1	
COc1cccc(CNc2ccc([S+](=O)([O-])Nc3c(C)nn(C)c3C)cn2)c1 [DDD73329]	1.6			>1	
COc1cc(C)c([S+](=O)([O-])Nc2c(C)nn(C)c2N2CCOCC2)c(C)c1C [DDD73271]	> 100			>1	
Cc1nn(C)c(C)c1N[S+](=O)([O-])c1ccc(CNc2ccccc2)cc1 [DDD73509]	3.8			>1	
Cc1nn(C)c(C)c1N[S+](=O)([O-])c1cccc2cccnc12 [DDD71283]	7.4			>1	
Cc1nn(C)c(C)c1N[S+](=O)([O-])c1ccc([S+](=O)([O-])N2CCCC2)cc1 [DDD71607]	> 100			>1	
Cc1c(N[S+](=O)([O-])c2c(Cl)cc(Br)cc2Cl)cnn1C [DDD88315]		20		>10	
Cc1nn(C)c(C)c1N[S+](=O)([O-])c1ccc(NCc2cccc(CN3CCCCC3)c2)nc1 [DDD85651]		1.8		9.8	
Cc1nn(C)c(C)c1N[S+](=O)([O-])c1c(Cl)cc(C#Cc2cncn2C)cc1Cl [DDD73484]	0.67			3.1	
Cc1nn(C)c(C)c1N[S+](=O)([O-])c1cccc2c(N(C)C)cccc12 [DDD73240]	1.6			>1	
CCCn1ncc(N[S+](=O)([O-])c2c(C)cc(OC)c(C)c2C)n1 [DDD73266]	> 100			>1	
CCCn1cc(N[S+](=O)([O-])c2c(C)cc(OC)c(C)c2C)nn1 [DDD73269]	> 100			>1	

Compound	IC50 [2, 3] [µM]	IC50 [2, 4] [µM]	IC50 [2, 6] [µM]	ED50 (μM) T. brucei ([1]; T. brucei cell growth) [µM]	ED50 (μM) T. brucei [1, 5] [µM]
Cc1nn(C)c(C)c1N[S+](=O)([O-])c1ccc(NCCCO)nc1 [DDD73222]	1			>1	
Cc1nn(C)c(C)c1N[S+](=O)([O-])c1ccc(CN2C(=O)CSC2=O)cc1 [DDD73243]	5.8			>1	
Cc1nn(C)c(C)c1N[S+](=O)([O-])c1ccc2c(c1)CCC2 [DDD71253]	5.6			>1	
Cc1nn(C)c(C)c1N[S+](=O)([O-])c1ccc(CNc2noc(C)c2C)cc1 [DDD73510]	26.9			>1	
Cc1nn(C)c(C)c1N[S+](=O)([O-])c1ccc(CNc2ccc(N3CCOCC3)cc2)cc1 [DDD73506]	10			>1	
Cc1nn(C)c(C)c1N[S+](=O)([O-])c1ccc2c(c1)OCCN2C [DDD71281]	16.1			>1	
Cc1nn(C)c(C)c1N[S+](=O)([O-])c1ccc(CNc2ccncn2)cc1 [DDD73504]	4.2			>1	
Cc1nn(C)c(C)c1N[S+](=O)([O-])c1ccc(N2Cc3ccccc3CC2CO)nc1 (stereo not drawn) [DDD73331]	6			>1	
COc1cc(NCc2ccc([S+](=O)([O-])Nc3c(C)nn(C)c3C)cc2)cc(OC)c1OC [DDD73501]	19			>1	
Cc1nn(C)c(C)c1N[S+](=O)([O-])c1ccc(NCc2cccc(N(C)C)c2)nc1 [DDD73320]	2.6			16.3	
Cc1nn(C)c(C)c1N[S+](=O)([O-])c1c(Cl)cc(-c2ccnc(NCCN)c2)cc1Cl		1		>1	
Cc1nn(C)c(C)c1N[S+](=O)([O-])c1ccc(NC(C)c2ccccc2)nc1 (stereo not drawn) [DDD73322]	0.86			5.4	
Cc1nn(C)c(C)c1N[S+](=O)([O-])c1ccc(CNCc2ccccc2)cc1 [DDD73265]	22.5			>1	
Cc1nn(C)c(C)c1N[S+](=O)([O-])c1ccc(NC2CCc3ccccc32)nc1 (stereo not drawn) [DDD85613]	6.6			>1	
Cc1nn(C)c(C)c1N[S+](=O)([O-])c1c(Cl)cc(-c2cccc3cnccc23)cc1Cl [DDD73278]	26.9			>1	
Cc1nn(C)c(C)c1N[S+](=O)([O-])c1ccc2c(c1)OCO2 [DDD71282]	4			>1	
COc1cc(C)c([S+](=O)([O-])Nc2c(C)cc(C)cc2C)c(C)c1C [DDD71645]	> 100			>1	
